Measured values from patent US20150105252A1, “SUBSTITUTED PYRAZOLES AS HERBICIDES” (E I DU PONT DE NEMOURS AND COMPANY, priority 2013, published 2015).

Columns and labels:
corn = experiment: Test F postemergence; type: in vivo, Zea mays; details: scale 0 to 100
Excerpt: (§1) Seeds of plant species selected from corn (Zea mays), soybean (Glycine max), velvetleaf (Abutilon theophrasti), lambsquarters (Chenopodium album), wild poinsettia (Euphorbia heterophylla), pigweed, palmer (palmer pigweed, Amaranthus palmeri), common waterhemp (Amaranthus rudis), surinam grass (Brachiaria decumbens), large crabgrass (Digitaria sanguinalis), crabgrass, Brazil (Brazilian crabgrass, Digitaria horizontalis), fall panicum (Panicum dichotomiflorum), giant foxtail (Setaria faberii), green foxtail (Setaria viridis), goosegrass (Eleusine indica), johnsongrass (Sorghum halepense), common ragweed (Ambrosia elation), barnyardgrass (Echinochloa crus-galli), southern sandbur (Cenchrus echinatus), arrowleaf sida (Sida rhombifolia), Italian ryegrass (Lolium multiflorum), dayflower, VA (Virginia (VA) dayflower, Commelina virginica), field bindweed (Convolvulus arvensis), cocklebur (common cocklebur, Xanthium strumarium), morningglory (Ipomoea coccinea), nightshade (eastern black nightshade, Solanum ptycanthum), kochia (Kochia scoparia), yellow nutsedge (Cyperus esculentus), and hairy beggarticks (Bidens pilosa), were planted into a silt loam soil and treated preemergence with test chemicals formulated in a non-phytotoxic solvent mixture which included a surfactant.
(§2) At the same time, plants from these crop and weed species and also horseweed (Canada horseweed, Conyza canadensis), smartweed (ladysthumb smartweed, Polygonum persicaria), waterhemp_RES1, (ALS & Triazine resistant common waterhemp, Amaranthus rudis), and waterhemp_RES2, (ALS & HPPD resistant common waterhemp, Amaranthus rudis) were treated with postemergence applications of test chemicals formulated in the same manner. Plants ranged in height from 2 to 18 cm for postemergence treatments (1- to 4-leaf stage). Treated plants and controls were maintained in a greenhouse for 14 to 21 days, after which time all species were compared to controls and visually evaluated. Plant response ratings, summarized in Table F, are based on a scale of 0 to 100 where 0 is no effect and 100 is complete control. A dash (-) response means no test result.

common waterhemp = experiment: Test F postemergence; type: in vivo, Amaranthus rudis; details: scale 0 to 100
Excerpt: as §1, §2

[1] = system: waterhemp_RES1 (ALS & Triazine resistant common waterhemp); experiment: Test F postemergence; type: in vivo, Amaranthus rudis; details: scale 0 to 100
Excerpt: as §1, §2

[2] = system: waterhemp_RES2 (ALS & HPPD resistant common waterhemp); experiment: Test F postemergence; type: in vivo, Amaranthus rudis; details: scale 0 to 100
Excerpt: as §1, §2

ragweed = experiment: Test E preemergence; type: in vivo, Ambrosia elation; details: 21 days, scale 0 to 100
Excerpt: (§3) Seeds of plant species selected from bermudagrass (Cynodon dactylon), Surinam grass (Brachiaria decumbens), crabgrass, large (large crabgrass, Digitaria sanguinalis), crabgrass, naked (naked crabgrass, Digitaria nuda), foxtail, green (green foxtail, Setaria viridis), johnsongrass (Sorghum halepense), kochia (Kochia scoparia), morningglory (pitted morningglory, Ipomoea lacunosa), nutsedge, purple (purple nutsedge, Cyperus rotundus), ragweed (common ragweed, Ambrosia elation), mustard, black (black mustard, Brassica nigra), guineagrass (Panicum maximum), dallisgrass (Paspalum dilatatum), barnyardgrass (Echinochloa crus-galli), sandbur (southern sandbur, Cenchrus echinatus), sowthistle (common sowthistle, Sonchus oleraceous), ryegrass, Italian (Italian ryegrass, Lolium multiflorum), signalgrass (broadleaf signalgrass, Brachiaria platyphylla), dayflower, VA (Virginia (VA) dayflower, Commelina virginica), bluegrass (annual bluegrass, Poa annua), quackgrass (Elytrigia repens), mallow (common mallow, Malva sylvestris), buckwheat, wild (wild buckwheat, Polygonum convolvulus), leafy spurge (Euphorbia esula), common chickweed (Stellaria media), wild poinsettia (Euphorbia heterophylla), pigweed, palmer (palmer pigweed, Amaranthus palmeri), and pigweed (redroot pigweed, Amaranthus retroflexus) were planted into a blend of loam soil and sand and treated preemergence with test chemicals formulated in a non-phytotoxic solvent mixture which included a surfactant.
(§4) Treated plants and controls were maintained in a greenhouse for 21 days, after which time all species were compared to controls and visually evaluated. Plant response ratings, summarized in Table E, are based on a scale of 0 to 100 where 0 is no effect and 100 is complete control. A dash (-) response means no test result.

dayflower, VA = experiment: Test F postemergence; type: in vivo, Commelina virginica; details: scale 0 to 100
Excerpt: as §1, §2

wild poinsettia = experiment: Test E preemergence; type: in vivo, Euphorbia heterophylla; details: 21 days, scale 0 to 100
Excerpt: as §3, §4

sedge, umbrella = experiment: Test C flooded paddy test; type: in vivo, Cyperus difformis; details: Flood
How it was run: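 Greenhouse pots flooded to 3 cm above soil at time of treatment received compound via the water, which stayed at that level.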

[3] = 31 g ai/ha, scale 0 to 100 (0 no effect, 100 complete control)
[4] = 62 g ai/ha, scale 0 to 100 (0 no effect, 100 complete control)
[5] = 125 g ai/ha, scale 0 to 100 (0 no effect, 100 complete control)

For `CCc1cc(C(=O)NCC(F)(F)F)nn1Cc1ccnc(C(F)(F)F)c1` [Compound 78, 5-ethyl-N-(2,2,2-trifluoroethyl)-1-[[(2-trifluoromethyl)-4-pyridinyl]methyl]-1H-pyrazole-3-carboxamide], the “Plant response rating, Corn” value (corn; Postemergence, 31 g ai/ha) was 15, the “Plant response rating, Corn” value (corn; Postemergence, 125 g ai/ha) was 50 and the “Plant response rating, Corn” value (corn; Postemergence, 250 g ai/ha) was 85. The “Plant response rating, Corn” value (corn; postemergence, 62 g ai/ha) was 20, the “Plant response rating, Common Waterhemp” value (common waterhemp; Postemergence, 31 g ai/ha) was 70 and the “Plant response rating, Common Waterhemp” value (common waterhemp; Postemergence, 125 g ai/ha) was 75. The “Plant response rating, Common Waterhemp” value (common waterhemp; Postemergence, 250 g ai/ha) was 70, the “Plant response rating, Common Waterhemp” value (common waterhemp; postemergence, 62 g ai/ha) was 60 and the “Plant response rating, Common Waterhemp” value (common waterhemp; postemergence, 500 g ai/ha) was 98. The “Plant response rating, Waterhemp_RES1” value ([1]; Postemergence, 31 g ai/ha) was 60, the “Plant response rating, Waterhemp_RES1” value ([1]; Postemergence, 125 g ai/ha) was 60 and the “Plant response rating, Waterhemp_RES1” value ([1]; Postemergence, 250 g ai/ha) was 65. The “Plant response rating, Waterhemp_RES1” value ([1]; postemergence, 62 g ai/ha) was 70, the “Plant response rating, Waterhemp_RES1” value ([1]; postemergence, 500 g ai/ha) was 100 and the “Plant response rating, Waterhemp_RES2” value ([2]; Postemergence, 31 g ai/ha) was 60. For the same compound, the “Plant response rating, Waterhemp_RES2” value ([2]; Postemergence, 125 g ai/ha) was 70, the “Plant response rating, Waterhemp_RES2” value ([2]; Postemergence, 250 g ai/ha) was 75 and the “Plant response rating, Waterhemp_RES2” value ([2]; postemergence, 62 g ai/ha) was 65. For the same compound, the “Plant response rating, Waterhemp_RES2” value ([2]; postemergence, 500 g ai/ha) was 95, the “Plant response rating, Ragweed” value (ragweed; 16 g ai/ha) was 75 and the “Plant response rating, Ragweed” value (ragweed; 31 g ai/ha) was 100. For the same compound, the “Plant response rating, Ragweed” value (ragweed; 62 g ai/ha) was 100, the “Plant response rating, Ragweed” value (ragweed; 125 g ai/ha) was 100 and the “Plant response rating, Ragweed” value (ragweed; 250 g ai/ha) was 100. For the same compound, the “Plant response rating, Dayflower, VA” value (dayflower, VA; Postemergence, 31 g ai/ha) was 20, the “Plant response rating, Dayflower, VA” value (dayflower, VA; Postemergence, 125 g ai/ha) was 60 and the “Plant response rating, Dayflower, VA” value (dayflower, VA; Postemergence, 250 g ai/ha) was 90. The “Plant response rating, Dayflower, VA” value (dayflower, VA; postemergence, 62 g ai/ha) was 50 and the “Plant response rating, Dayflower, VA” value (dayflower, VA; postemergence, 500 g ai/ha) was 98.
In the case of `CCc1cc(C(=O)NC(C)C)nn1Cc1ccnc(C(F)(F)F)c1` [Compound 103], the “Plant response rating, Wild Poinsettia” value (wild poinsettia; 16 g ai/ha) is reported as 80, the “Plant response rating, Wild Poinsettia” value (wild poinsettia; 31 g ai/ha) is reported as 95 and the “Plant response rating, Wild Poinsettia” value (wild poinsettia; 62 g ai/ha) is reported as 100. The “Plant response rating, Wild Poinsettia” value (wild poinsettia; 125 g ai/ha) was 100, the “Plant response rating, Wild Poinsettia” value (wild poinsettia; 250 g ai/ha) was 100 and the “Plant response rating, Ragweed” value (ragweed; 16 g ai/ha) was 5. For the same compound, the “Plant response rating, Ragweed” value (ragweed; 31 g ai/ha) was 98, the “Plant response rating, Ragweed” value (ragweed; 62 g ai/ha) was 100 and the “Plant response rating, Ragweed” value (ragweed; 125 g ai/ha) was 100. For the same compound, the “Plant response rating, Ragweed” value (ragweed; 250 g ai/ha) was 100.
For `CCCNC(=O)c1cc(CCCl)n(Cc2ccnc(C(F)(F)F)c2)n1` [Compound 145], the “Plant response rating, Sedge, Umbrella” value (sedge, umbrella; [3]) was 100, the “Plant response rating, Sedge, Umbrella” value (sedge, umbrella; [4]) was 100 and the “Plant response rating, Sedge, Umbrella” value (sedge, umbrella; 125 g ai/ha, scale 0 to 100) was 100. For the same compound, the “Plant response rating, Sedge, Umbrella” value (sedge, umbrella; 250 g ai/ha, scale 0 to 100) was 100.
In the case of `CCOc1cc(C(=O)NC(C)C)nn1Cc1ccnc(C(F)(F)F)c1` [Compound 188], the “Plant response rating, Corn” value (corn; Postemergence, 31 g ai/ha) is reported as 10, the “Plant response rating, Corn” value (corn; Postemergence, 125 g ai/ha) is reported as 60 and the “Plant response rating, Corn” value (corn; Postemergence, 250 g ai/ha) is reported as 95. The “Plant response rating, Corn” value (corn; postemergence, 62 g ai/ha) was 20, the “Plant response rating, Common Waterhemp” value (common waterhemp; Postemergence, 31 g ai/ha) was 60 and the “Plant response rating, Common Waterhemp” value (common waterhemp; Postemergence, 125 g ai/ha) was 80. The “Plant response rating, Common Waterhemp” value (common waterhemp; Postemergence, 250 g ai/ha) was 80, the “Plant response rating, Common Waterhemp” value (common waterhemp; postemergence, 62 g ai/ha) was 70 and the “Plant response rating, Common Waterhemp” value (common waterhemp; postemergence, 500 g ai/ha) was 90. For the same compound, the “Plant response rating, Waterhemp_RES1” value ([1]; Postemergence, 31 g ai/ha) was 60, the “Plant response rating, Waterhemp_RES1” value ([1]; Postemergence, 125 g ai/ha) was 50 and the “Plant response rating, Waterhemp_RES1” value ([1]; Postemergence, 250 g ai/ha) was 80. For the same compound, the “Plant response rating, Waterhemp_RES1” value ([1]; postemergence, 62 g ai/ha) was 70, the “Plant response rating, Waterhemp_RES1” value ([1]; postemergence, 500 g ai/ha) was 85 and the “Plant response rating, Waterhemp_RES2” value ([2]; Postemergence, 31 g ai/ha) was 65. For the same compound, the “Plant response rating, Waterhemp_RES2” value ([2]; Postemergence, 125 g ai/ha) was 50, the “Plant response rating, Waterhemp_RES2” value ([2]; Postemergence, 250 g ai/ha) was 50 and the “Plant response rating, Waterhemp_RES2” value ([2]; postemergence, 62 g ai/ha) was 70. For the same compound, the “Plant response rating, Waterhemp_RES2” value ([2]; postemergence, 500 g ai/ha) was 60, the “Plant response rating, Dayflower, VA” value (dayflower, VA; Postemergence, 31 g ai/ha) was 40 and the “Plant response rating, Dayflower, VA” value (dayflower, VA; Postemergence, 125 g ai/ha) was 70. The “Plant response rating, Dayflower, VA” value (dayflower, VA; Postemergence, 250 g ai/ha) was 90, the “Plant response rating, Dayflower, VA” value (dayflower, VA; postemergence, 62 g ai/ha) was 50 and the “Plant response rating, Dayflower, VA” value (dayflower, VA; postemergence, 500 g ai/ha) was 90.
In the case of `CCOc1cc(C(=O)NC2CC2)nn1Cc1ccnc(C(F)(F)F)c1` [Compound 189], the “Plant response rating, Wild Poinsettia” value (wild poinsettia; 4 g ai/ha) is reported as 10, the “Plant response rating, Wild Poinsettia” value (wild poinsettia; 8 g ai/ha) is reported as 25 and the “Plant response rating, Wild Poinsettia” value (wild poinsettia; 16 g ai/ha) is reported as 65. The “Plant response rating, Wild Poinsettia” value (wild poinsettia; 31 g ai/ha) was 95, the “Plant response rating, Wild Poinsettia” value (wild poinsettia; 62 g ai/ha) was 100 and the “Plant response rating, Ragweed” value (ragweed; 8 g ai/ha) was 95. The “Plant response rating, Ragweed” value (ragweed; 16 g ai/ha) was 100, the “Plant response rating, Ragweed” value (ragweed; 31 g ai/ha) was 100 and the “Plant response rating, Ragweed” value (ragweed; 62 g ai/ha) was 100.
In the case of `CCONC(=O)c1cc(OCC)n(Cc2ccnc(C(F)(F)F)c2)n1` [Compound 195], the “Plant response rating, Sedge, Umbrella” value (sedge, umbrella; [3]) is reported as 0, the “Plant response rating, Sedge, Umbrella” value (sedge, umbrella; [4]) is reported as 75 and the “Plant response rating, Sedge, Umbrella” value (sedge, umbrella; [5]) is reported as 80. The “Plant response rating, Sedge, Umbrella” value (sedge, umbrella; 250 g ai/ha, scale 0 to 100) was 85.
`CCc1cc(C(=O)NC2CC2)nn1Cc1ccnc(OCC(F)(F)F)c1` [Compound 200] was tested, and the “Plant response rating, Sedge, Umbrella” value (sedge, umbrella; [3]) was 50, the “Plant response rating, Sedge, Umbrella” value (sedge, umbrella; [4]) was 80 and the “Plant response rating, Sedge, Umbrella” value (sedge, umbrella; [5]) was 100. The “Plant response rating, Sedge, Umbrella” value (sedge, umbrella; 250 g ai/ha, scale 0 to 100) was 100.
With `CCc1cc(C(=O)NC2CC2)nn1Cc1cc(C(F)(F)C(F)(F)F)nn1C` [Compound 226] the “Plant response rating, Sedge, Umbrella” value (sedge, umbrella; [3]) was 20, the “Plant response rating, Sedge, Umbrella” value (sedge, umbrella; [4]) was 25 and the “Plant response rating, Sedge, Umbrella” value (sedge, umbrella; [5]) was 85.
